Results: US9475836B2, “Protopanoxadiol derivative, preparation method thereof and application thereof” (SHANG HAI INNOVATIVE RESEARCH CENTER OF TRADITIONAL CHINESE …, priority 2013, dated 2016)
Structures can show the parent of a compound that is named as a salt.

Test system: CUMS rats
Assay: Rat chronic unpredictable mild stress depression model (CUMS) test, sucrose preference
Assay type: in vivo, Wistar rats
Conditions: for effect on sucrose water intake of CUMS rats: 0.375 mg/kg
Experimental: Rat Chronic Unpredictable Mild Stress Depression Model (CUMS) Test
Variety: Wistar rats; Sex: male; Body Weight: 200 g.
Compounds I and II (being compounds of Examples 1 and 5 respectively), venlafaxine hydrochloride
Experimental method comprises starting CUMS program after adaptively breeding the rats for 1 week.
1) Sucrose preference experiment: all animals were fed with 1% sucrose water within the first 24 h; during the subsequent 24 h, all the animals were simultaneously fed with 1% sucrose water and common drinking water, then fasted with water deprivation for 23 h. Subsequently sucrose preference experiment was performed: simultaneously feeding the animals with 1% sucrose water and common drinking water, and measuring the drinking amounts of sucrose water and common drinking water for animals in 1 h by weighing the drinking water bottles. The animals were grouped evenly according to the animal body weight, liquid consumption amount and sucrose water consumption, and subjected to chronic unpredictable mild stress stimulation.
2) CUMS experiment: the rats were alternately given tens of stress stimulation factors each week, so that the rats cannot predict the stimulation duration of each stress factor and the stimulation to be given subsequently. The stimulation factor includes: flash stimulation, noise stimulation, rat cage inclination; and strange smell environment feeding, fasting, water deprivation.
3) Detection method comprising: detecting liquid consumption amount after food-fasting and water-deprivation for 21 h each week, recording the body weight, total liquid intake, water intake and sucrose water intake of each animal, and calculating sucrose water preference percentage (preference=(sucrose water intake/total liquid intake)×100%) and sucrose water consumption amount per gram of body weight of each rat.

[1] = 1.5 mg/kg and 0.75 mg/kg, after the fifth week (P<0.01 or 0.05)

| SMILES | effect on sucrose water intake of CUMS rats | sucrose water intake of CUMS rats as compared to the model group [1] | sucrose water intake of CUMS rats as compared to the model group (20 mg/kg, during the fifth week (P<0.01)) |
| --- | --- | --- | --- |
| CC(C)(O)C1CCC(C)(C2CCC3(C)C2C(=NO)CC2C4(C)CCC(=NO)C(C)(C)C4CCC23C)O1 (centres unmarked) [Compound II] | not significant | statistically significant difference |  |
| CC(C)=CCCC(C)(O)C1CCC2(C)C1C(=NO)CC1C3(C)CCC(=NO)C(C)(C)C3CCC12C (centres unmarked) [Compound I] | not significant | statistically significant difference |  |
| COc1ccc(C(CN(C)C)C2(O)CCCCC2)cc1 (centres unmarked) [Venlafaxine, venlafaxine hydrochloride, reference compound] |  |  | statistically significant difference |
